Data published in patent publication US4748161A, “Triterpenyl esters of organic acids and hypolipidemic agents composed of them” (Amano Pharmaceutical Co., Ltd., priority 1984, dated 1988).
Where “and” joins values, the source holds several entries; their conditions need not be identical. Equal values may be shown once.

Tested on: serum lipids and serum lipid hydroperoxide
Assay: Pharmacological test method A for anti-hyperlipidemic activity (serum lipids, 2 weeks feeding)
Type: in vivo, male Wistar strain rats
Conditions: for AI [(TC - HDL-C)/(HDL-C)] / HDL-C in serum / LPO in serum / PL in serum / TC in serum / TG in serum: 1% in hyperlipidemic diet, 2 weeks
How it was run: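 Male Wistar rats (100±lg, 10 per group) fed 10 g/day for 2 weeks of a 1% cholesterol/0.5% cholic acid diet, test groups with 1% each of cycloartenol, 24-methylenecycloartanol and cyclobranol. After 16 h fast, aortic blood serum assayed enzymatically/colorimetrically for TC, HDL-C, TG, PL, LPO.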

| Compound | AI [(TC - HDL-C)/(HDL-C)] | HDL-C in serum | LPO in serum | PL in serum | TC in serum | TG in serum | AI % of diff. (versus control group) | AI Diff. (versus control group) | HDL-C % of diff. (versus control group) | HDL-C Diff. (versus control group) | LPO % of diff. (versus control group) | LPO Diff. (versus control group) | PL % of diff. (versus control group) | PL Diff. (versus control group) | TC % of diff. (versus control group) | TC Diff. (versus control group) | TG % of diff. (versus control group) | TG Diff. (versus control group) | AI Diff. (Table 2, versus control group) |
| --- | --- | --- | --- | --- | --- | --- | --- | --- | --- | --- | --- | --- | --- | --- | --- | --- | --- | --- | --- |
| C=C(CCC(C)C1CCC2(C)C3CCC4C(C)(C)C(OC(=O)CCCCCCC/C=C\C/C=C\CCCCC)CCC45CC35CCC12C)C(C)C (stereo not drawn) [Example 93, 24-Methylenecycloartanyl ester of linoleic acid] | 0.761 | 91.5 mg/dL | 1.70 nmol/mL | 150.2 mg/dL | 161.1 mg/dL | 35.1 mg/dL | -37.7% | -0.461 | +5.8% | +5.0 mg/dl | -24.3% | -0.54 nmol/mL | -13.0% | -22.4 mg/dL | -16.2% | -31.1 mg/dL | -3.3% | -1.2 mg/dL |  |
| CC(C)=C(C)CCC(C)C1CCC2(C)C3CCC4C(C)(C)C(OC(=O)c5ccccc5O)CCC45CC35CCC12C (stereo not drawn) [Example 41, cyclobranyl-o-hydroxybenzoate] | 0.890 | 92.9 mg/dL | 2.01 nmol/mL | 156.7 mg/dL | 175.6 mg/dL | 41.5 mg/dL | -47.1% | -0.794 | +14.8% | +12.0 mg/dl | -13.0% | -0.30 nmol/mL | -12.8% | -23.0 mg/dL | 19.1% | -41.5 mg/dL | -3.0% | -1.3 mg/dL |  |
| cycloartenyl-3,4-dihydroxycinnamate [Example 2] | 0.860 and 1.180 | 90.3 mg/dL and 89.2 mg/dL | 1.98 nmol/mL and 2.05 nmol/mL | 168.2 mg/dL and 170.2 mg/dL | 168.0 mg/dL and 194.5 mg/dL | 30.6 mg/dL and 41.3 mg/dL |  | -0.504 |  |  | -12.8% and -11.2% |  | -3.1% and -5.0% |  | -18.1% and -10.4% |  | -10.9% and -3.5% |  | -0.657 mg/dL |
| CC(C)=CCCC(C)C1CCC2(C)C3CCC4C(C)(C)C(OC(=O)c5cccnc5)CCC45CC35CCC12C (stereo not drawn) [Example 24, cycloartenyl nicotinate] | 0.748 | 94.0 mg/dL | 1.93 nmol/mL | 133.8 mg/dL | 164.3 mg/dL | 34.7 mg/dL | -38.8% | -0.474 | +8.7% | +7.5 mg/dl | -13.7% | -0.31 nmol/mL | -22.5% | -38.8 mg/dL | -14.5% | -27.9 mg/dL | 4.3% | -1.6 mg/dL |  |
| COc1cc(C(=O)OC2CCC34CC35CCC3(C)C(C(C)CCC(C)=C(C)C)CCC3(C)C5CCC4C2(C)C)ccc1O (stereo not drawn) [Example 37, cyclobranyl-4-hydroxy-3-methoxybenzoate] | 0.460 | 110.4 mg/dL | 1.91 nmol/mL | 155.4 mg/dL | 161.2 mg/dL | 31.0 mg/dL | -54.1% | -0.542 | +14.8% | +14.2 mg/dl | -18.0% | -0.42 nmol/mL | -14.1% | -25.5 mg/dL | -16.3% | -31.4 mg/dL | -6.6% | -2.2 mg/dL |  |
| CC(C)=CCCC(C)C1CCC2(C)C3CCC4C(C)(C)C(OC(=O)c5cccc(O)c5)CCC45CC35CCC12C (stereo not drawn) [Example 12, cycloartenyl-m-hydroxybenzoate] | 1.571 | 58.5 mg/dL | 2.03 nmol/mL | 140.4 mg/dL | 150.4 mg/dL | 24.0 mg/dL | -14.9% | -0.276 | -0.3% | -0.2 mg/dL | -13.2% | -0.31 nmol/mL | -5.4% | -8.0 mg/dL | -10.0% | -16.7 mg/dL | -3.2% | -0.8 mg/dL |  |
| COc1cc(C(=O)OC2CCC34CC35CCC3(C)C(C(C)CCC=C(C)C)CCC3(C)C5CCC4C2(C)C)ccc1O (stereo not drawn) [Example 29, cycloartenyl-4-hydroxy-3-methoxybenzoate] | 0.611 | 101.0 mg/dL | 1.95 nmol/mL | 160.6 mg/dL | 162.7 mg/dL | 32.7 mg/dL | -39.0% | -0.391 | +5.0% | +4.8 mg/dl | -16.3% | -0.38 nmol/mL | -11.2% | -20.3 mg/dL | -15.5% | -29.9 mg/dL | -1.5% | -0.5 mg/dL |  |
| COc1ccc(C(=O)OC2CCC34CC35CCC3(C)C(C(C)CCC=C(C)C)CCC3(C)C5CCC4C2(C)C)cc1 (stereo not drawn) [Example 14, cycloartenyl-p-methoxybenzoate] | 1.275 | 64.1 mg/dL | 1.81 nmol/mL | 120.9 mg/dL | 145.8 mg/dL | 25.4 mg/dL | -27.8% | -0.492 | +6.5% | +3.9 mg/dl | -28.5% | -0.72 nmol/mL | -11.6% | -15.8 mg/dL | -12.5% | -20.8 mg/dL | -6.6% | -1.8 mg/dL |  |
| CC(C)=C(C)CCC(C)C1CCC2(C)C3CCC4C(C)(C)C(OC(=O)c5ccccc5N)CCC45CC35CCC12C (stereo not drawn) [Example 47, cyclobranyl-o-aminobenzoate] | 1.811 | 53.4 mg/dL | 2.03 nmol/mL | 140.3 mg/dL | 150.1 mg/dL | 20.4 mg/dL | -1.9% | -0.036 | -9.0% | -5.3 mg/dL | -13.2% | -0.31 nmol/mL | -5.5% | -8.1 mg/dL | -10.2% | -17.0 mg/dL | -17.7% | -4.4 mg/dL |  |
| COc1cc(C=CC(=O)OC2CCC34CC35CCC3(C)C(C(C)CCC(C)=C(C)C)CCC3(C)C5CCC4C2(C)C)ccc1O (stereo not drawn) [Example 100-2, cyclobranyl-4-hydroxy-3-methoxycinnamate] | 0.772 | 94.1 mg/dL | 1.59 nmol/mL | 143.0 mg/dL | 166.7 mg/dL | 21.6 mg/dL | -49.1% | -0.745 | +18.5% | +15.1 mg/dl | -29.8% | -0.68 nmol/mL | -17.6% | -30.6 mg/dL | -18.7% | -38.4 mg/dL | -37.0% | -12.7 mg/dL |  |
| CC(C)=C(C)CCC(C)C1CCC2(C)C3CCC4C(C)(C)C(OC(=O)C=Cc5ccc(N)cc5)CCC45CC35CCC12C (stereo not drawn) [Example 104, cyclobranyl ester of p-aminocinnamic acid] | 3.205 | 48.7 mg/dL | 2.01 nmol/mL | 143.7 mg/dL | 204.8 mg/dL | 27.4 mg/dL | -59.1% | -4.635 | +32.0% | +11.8 mg/dl | -28.2% | -0.79 nmol/mL | -13.2% | -21.9 mg/dL | -37.2% | -121.4 mg/dL | -19.4% | -6.6 mg/dL |  |
| COc1cc(C=CC(=O)OC2CCC34CC35CCC3(C)C(C(C)CCC=C(C)C)CCC3(C)C5CCC4C2(C)C)ccc1O (stereo not drawn) [Example 100-1, cycloartenyl-4-hydroxy-3-methoxycinnamate] | 1.204 | 79.1 mg/dL | 1.51 nmol/mL | 150.0 mg/dL | 174.3 mg/dL | 28.3 mg/dL | -20.6% | -0.313 | -3.0% | -2.4 mg/dL | -33.5% | -0.76 nmol/mL | -13.3% | -23.1 mg/dL | -15.0% | -30.8 mg/dL | -17.6% | -6.0 mg/dL |  |
